Here are results for one compound from ChEMBL document CHEMBL5625183, “Discovery of a novel dual-target inhibitor of CDK12 and PARP1 that induces synthetic lethality for treatment of triple-negative breast cancer” (Eur J Med Chem, 2023).

Calls of active or inactive are those of the source. No cut-off for these calls is given here.

For data set [1], the system named is MDA-MB-231. Briefly: Induction of apoptosis in human MDA-MB-231 cells assessed as upregulation of Bax expression incubated for 24 hrs. Type of data set: functional, cell-based. As to conditions: dose 5-20 µM.
Data set [2] in a line: AUC (0 to infinity) in Sprague-Dawley rat at 10 mg/kg, po measured upto 24 hrs by LC-MS/MS analysis. In kind it is ADME, organism-based. As to conditions: in vivo.
Data set [3] has as its system MDA-MB-436. Briefly: Induction of cell cycle arrest in human MDA-MB-436 cells assessed as accumulation of cells at G2 phase at 20 uM measured after 24 hrs by PI staining based cytometry analysis (reference value: 2.54%). Type of data set: functional.
Data set [4] has as its target Poly [ADP-ribose] polymerase 1 (Homo sapiens, UniProt P09874). As to the kind of experiment: Binding affinity to PARP1 in human MDA-MB-436 cells assessed as increase in protein thermal stabilization at 10 uM incubated for 6 hrs by CETSA based Western blot analysis. In kind it is cell-based. In general terms: Immunoblotting shows a protein as a band on a membrane.
In data set [5] the test system is MDA-MB-436. As to the kind of experiment: Induction of cell cycle arrest in human MDA-MB-436 cells assessed as accumulation of cells at S phase at 20 uM measured after 24 hrs by PI staining based cytometry analysis (reference value: 25.43%). Type of data set: functional.
Data set [6] relates to MDA-MB-231. Briefly: Inhibition of cell migration in human MDA-MB-231 cells assessed as wound closure at 10 uM incubated for 24 hrs by wound healing assay. Type of data set: functional, cell-based.
For data set [7], the system named is MDA-MB-231. Briefly: Induction of cell cycle arrest in human MDA-MB-231 cells assessed as accumulation of cells at G2 phase at 10 uM measured after 24 hrs by PI staining based cytometry analysis (reference value: 8.44 %). In kind it is functional.
The target in data set [8] is Cyclin-dependent kinase 5 (Homo sapiens, UniProt Q00535). Briefly: Inhibition of CDK5 (unknown origin).
Chain of Cyclin-dependent kinase 5 (Q00535 whole entry): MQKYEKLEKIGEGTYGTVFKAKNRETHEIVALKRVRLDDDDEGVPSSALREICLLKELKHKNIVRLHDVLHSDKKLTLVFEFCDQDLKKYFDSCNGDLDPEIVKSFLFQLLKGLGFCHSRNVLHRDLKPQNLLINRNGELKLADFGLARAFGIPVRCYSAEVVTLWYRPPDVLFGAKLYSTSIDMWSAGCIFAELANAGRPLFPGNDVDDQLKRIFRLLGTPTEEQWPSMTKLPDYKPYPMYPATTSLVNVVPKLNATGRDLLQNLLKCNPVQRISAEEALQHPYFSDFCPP
Data set [9] relates to MDA-MB-231. Briefly: Antiproliferative activity against human MDA-MB-231 cells transfected with wild type CDK12 and PARP1 G863A mutant incubated for 24 hrs by MTT assay. Type of data set: functional, cell-based. (Tetrazolium assays rely on reduction of a dye to a coloured formazan, in cell work by metabolically active cells.)
The test system of data set [10] is MDA-MB-468. As to the kind of experiment: Inhibition of cell migration in human MDA-MB-468 cells assessed as downregulation of MMP-2 level by measuring fluorescence intensity at 10 uM incubated for 24 hrs by confocal microscopic analysis. In kind it is functional, cell-based.
Data set [11] concerns MDA-MB-231. As to the kind of experiment: Antiproliferative activity against human MDA-MB-231 cells transfected with CDK12 M816A and PARP1 G863A mutant incubated for 24 hrs by MTT assay. Type of data set: functional, cell-based.
Data set [12] relates to MDA-MB-468. As to the kind of experiment: Induction of apoptosis in human MDA-MB-468 cells assessed as upregulation of cleaved-caspase 3 expression incubated for 24 hrs. Type of data set: functional, cell-based. As to conditions: dose 5-20 µM.
Data set [13] relates to MDA-MB-231. Briefly: Induction of apoptosis in human MDA-MB-231 cells assessed as upregulation of cleaved-caspase 3 expression incubated for 24 hrs. In kind it is functional, cell-based. As to conditions: dose 5-20 µM.
The nature of data set [14]: Metabolic stability in human liver microsome assessed as intrinsic clearance in presence of NADPH incubated upto 60 mins by LC-MS/MS analysis. To be noted: liver microsomes, read-out: CLH. In kind it is ADME. (In general: Microsomes from liver hold many membrane-bound enzymes, among them those of drug oxidation.)

Chain of Poly [ADP-ribose] polymerase 1 (P09874 whole entry): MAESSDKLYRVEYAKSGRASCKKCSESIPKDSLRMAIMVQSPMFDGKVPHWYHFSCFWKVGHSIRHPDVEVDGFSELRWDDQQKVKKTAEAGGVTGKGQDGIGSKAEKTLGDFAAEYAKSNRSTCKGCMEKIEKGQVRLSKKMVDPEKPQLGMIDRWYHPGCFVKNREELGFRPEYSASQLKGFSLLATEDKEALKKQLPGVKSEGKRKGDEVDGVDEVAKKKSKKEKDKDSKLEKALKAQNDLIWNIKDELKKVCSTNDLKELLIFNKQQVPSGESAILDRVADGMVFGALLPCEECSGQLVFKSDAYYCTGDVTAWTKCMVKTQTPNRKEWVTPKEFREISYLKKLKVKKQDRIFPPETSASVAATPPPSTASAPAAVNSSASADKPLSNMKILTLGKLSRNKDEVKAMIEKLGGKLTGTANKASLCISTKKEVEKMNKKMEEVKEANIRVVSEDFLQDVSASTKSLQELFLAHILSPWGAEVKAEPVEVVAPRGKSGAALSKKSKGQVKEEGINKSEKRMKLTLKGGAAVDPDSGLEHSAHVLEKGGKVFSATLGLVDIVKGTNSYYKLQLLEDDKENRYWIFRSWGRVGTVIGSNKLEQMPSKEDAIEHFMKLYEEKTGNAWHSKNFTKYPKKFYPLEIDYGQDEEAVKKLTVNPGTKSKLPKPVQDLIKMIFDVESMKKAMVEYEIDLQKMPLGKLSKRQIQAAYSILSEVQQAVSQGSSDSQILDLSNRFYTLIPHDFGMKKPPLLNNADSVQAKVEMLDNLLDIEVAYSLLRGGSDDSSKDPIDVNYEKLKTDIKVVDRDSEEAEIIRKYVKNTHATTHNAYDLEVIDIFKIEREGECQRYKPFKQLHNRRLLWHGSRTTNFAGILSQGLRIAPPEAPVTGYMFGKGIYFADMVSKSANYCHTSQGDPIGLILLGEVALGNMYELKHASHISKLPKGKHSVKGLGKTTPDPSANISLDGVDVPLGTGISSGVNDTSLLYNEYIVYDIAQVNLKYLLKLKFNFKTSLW

`NC(=O)c1cccc2[nH]c(NC(=O)c3cccc(C(=O)N4CCC(Nc5ncc(I)cn5)CC4)c3)nc12`: the Activity entry in the data set on MDA-MB-231 [1] was “Dose-Dependent Effect”; in the data set on MDA-MB-436 [3], 15.05%; in the data set on MDA-MB-436 [5] it was 21.2%; with MDA-MB-231 [7], 20.35%; in the data set on MDA-MB-468 [12] it was “Dose-Dependent Effect”; in the data set with MDA-MB-231 [13], “Dose-Dependent Effect”. Also, in data set [2], the AUC(0-inf) (in general, total exposure, with the tail of the curve extrapolated) came to 71.2 ng·h/mL. Further, the outcome (in data set [4]; in the data set on MDA-MB-231 [9]; in the data set on MDA-MB-231 [11]) was Active. Further, the inhibition result in the data set with MDA-MB-231 [6] and in the data set on MDA-MB-468 [10] was “Active” each time. Moreover, in [8], the midpoint of inhibition, the IC50, lay at 747 nM. Moreover, the CLint scaled in [14] was found to be 7.61 mL/min/kg.
